Patent US6054435A, “6-O-substituted macrolides having antibacterial activity” (priority 1999, dated 2000)
≈ marks a conversion by molar mass, not a printed value.

Columns and labels:
Assay in all cases: in vitro antibacterial activity (MIC), agar dilution
Type in all cases: cell-based
[1] = system: Staphylococcus aureus 1775; conditions: organism code GG; BHI agar, 35-37° C., 20 to 24 hours; unit assumed
Outline: (§1)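 Steps: dilute compound serially into BHI agar (twelve plates); spot inocula diluted 1:100, or 1:10 for slow-growing Streptococcus; incubate; inspect visually. MIC recorded as lowest level with no growth, slight haze or sparse isolated colonies.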

[2] = system: Staphylococcus aureus A5177; conditions: organism code BB; BHI agar, 35-37° C., 20 to 24 hours; unit assumed
Outline: as §1

[3] = system: Micrococcus luteus ATCC 9341; conditions: organism code OO; BHI agar, 35-37° C., 20 to 24 hours; unit assumed
Outline: (§2)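 Endpoint: lowest concentration with no growth, slight haze or sparsely isolated colonies at the inoculum spot, judged against a compound-free BHI control. Strains were replicator-inoculated at 1:100 (1:10 for Streptococcus and other slow growers).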

[4] = system: Streptococcus bovis A-5169; conditions: organism code JJ; BHI agar, 35-37° C., 20 to 24 hours; unit assumed
Outline: as §1

[5] = system: Micrococcus luteus ATCC 4698; conditions: organism code PP; BHI agar, 35-37° C., 20 to 24 hours; unit assumed
Outline: as §2

[6] = system: Mycobacterium smegmatis ATCC 114; conditions: organism code UU; BHI agar, 35-37° C., 20 to 24 hours; unit assumed
Outline: as §1

[7] = system: Streptococcus pyogenes EES61; conditions: organism code LL; BHI agar, 35-37° C., 20 to 24 hours; unit assumed
Outline: as §1

[8] = system: Streptococcus Pneumonia ATCC6303; conditions: organism code XX; BHI agar, 35-37° C., 20 to 24 hours; unit assumed
Outline: as §1

[9] = system: Staphylococcus aureus NCTC10649M; conditions: organism code EE; BHI agar, 35-37° C., 20 to 24 hours; unit assumed
Outline: as §1

[10] = system: Streptococcus pyogenes PIU 2548; conditions: organism code NN; BHI agar, 35-37° C., 20 to 24 hours; unit assumed
Outline: as §1

[11] = system: Streptococcus Pneumonia GYR 1171; conditions: organism code YY; BHI agar, 35-37° C., 20 to 24 hours; unit assumed
Outline: as §1

[12] = system: Streptococcus Pneumonia 5649; conditions: organism code ZZA; BHI agar, 35-37° C., 20 to 24 hours; unit assumed
Outline: as §1

[13] = system: Streptococcus pyogenes 930; conditions: organism code MM; BHI agar, 35-37° C., 20 to 24 hours; unit assumed
Outline: as §1

[14] = system: Staphylococcus aureus CMX 642A; conditions: organism code DD; BHI agar, 35-37° C., 20 to 24 hours; unit assumed
Outline: as §1

[15] = system: Nocardia Asteroides ATCC9970; conditions: organism code VV; BHI agar, 35-37° C., 20 to 24 hours; unit assumed
Outline: as §1

[16] = system: Staphylococcus aureus ATCC 6538P; conditions: organism code AA; BHI agar, 35-37° C., 20 to 24 hours; unit assumed
Outline: as §1

[17] = system: Enterococcus faecium ATCC 8043; conditions: organism code II; BHI agar, 35-37° C., 20 to 24 hours; unit assumed
Outline: as §1

[18] = system: Escherichia coli SS; conditions: organism code RR; BHI agar, 35-37° C., 20 to 24 hours; unit assumed
Outline: as §1

[19] = system: Staphylococcus aureus A-5278; conditions: organism code CC; BHI agar, 35-37° C., 20 to 24 hours; unit assumed
Outline: as §1

[20] = system: Haemophilis Influenzae DILL AMP R; conditions: organism code WW; BHI agar, 35-37° C., 20 to 24 hours; unit assumed
Outline: as §1

[21] = system: Staphylococcus aureus CMX 553; conditions: organism code FF; BHI agar, 35-37° C., 20 to 24 hours; unit assumed
Outline: as §1

[22] = system: Candida albicans CCH 442; conditions: organism code TT; BHI agar, 35-37° C., 20 to 24 hours; unit assumed
Outline: as §1

[23] = system: Escherichia coli JUHL; conditions: organism code QQ; BHI agar, 35-37° C., 20 to 24 hours; unit assumed
Outline: as §1

[24] = system: Streptococcus agalactiae CMX 508; conditions: organism code KK; BHI agar, 35-37° C., 20 to 24 hours; unit assumed
Outline: as §1

[25] = system: Escherichia coli DC-2; conditions: organism code SS; BHI agar, 35-37° C., 20 to 24 hours; unit assumed
Outline: as §1

[26] = system: Streptococcus Pneumonia 5979; conditions: organism code ZZ; BHI agar, 35-37° C., 20 to 24 hours; unit assumed
Outline: as §1

[27] = system: Staphylococcus epidermidis 3519; conditions: organism code HH; BHI agar, 35-37° C., 20 to 24 hours; unit assumed
Outline: as §1

| SMILES | MIC [1] [µg/mL] | MIC [2] [µg/mL] | MIC [3] [µg/mL] | MIC [4] [µg/mL] | MIC [5] [µg/mL] | MIC [6] [µg/mL] | MIC [7] [µg/mL] | MIC [8] [µg/mL] | MIC [9] [µg/mL] | MIC [10] [µg/mL] | MIC [11] [µg/mL] | MIC [12] [µg/mL] | MIC [13] [µg/mL] | MIC [14] [µg/mL] | MIC [15] [µg/mL] | MIC [16] [µg/mL] | MIC [17] [µg/mL] | MIC [18] [µg/mL] | MIC [19] [µg/mL] | MIC [20] [µg/mL] | further results |
| --- | --- | --- | --- | --- | --- | --- | --- | --- | --- | --- | --- | --- | --- | --- | --- | --- | --- | --- | --- | --- | --- |
| CC[C@H]1OC(=O)[C@H](C)C(=O)[C@H](C)[C@@H](O[C@@H]2O[C@H](C)C[C@H](N(C)C)[C@H]2O)[C@](C)(OC/C=C/c2ccc(-c3nccs3)s2)C[C@@H](C)C(=O)[C@H](C)[C@H]2NC(=O)O[C@@]21C [Example 63] | > 100 | 0.1 (≈ 0.124 µM) | 0.05 (≈ 0.0622 µM) | 0.05 (≈ 0.0622 µM) | 0.1 (≈ 0.124 µM) | 0.39 (≈ 0.485 µM) | 0.05 (≈ 0.0622 µM) | 0.008 (≈ 0.00995 µM) | 0.1 (≈ 0.124 µM) | 0.2 (≈ 0.249 µM) | 0.008 (≈ 0.00995 µM) | 0.25 (≈ 0.311 µM) | 6.2 (≈ 7.71 µM) | 0.1 (≈ 0.124 µM) | 0.05 (≈ 0.0622 µM) | 0.1 (≈ 0.124 µM) | 0.05 (≈ 0.0622 µM) | 0.1 (≈ 0.124 µM) | > 100 | 4 (≈ 4.97 µM) | MIC [21]: 0.1 µg/mL (≈ 0.124 µM); MIC [22]: > 100 µg/mL; MIC [23]: 100 µg/mL (≈ 124 µM); MIC [24]: 0.05 µg/mL (≈ 0.0622 µM); MIC [25]: 100 µg/mL (≈ 124 µM); MIC [26]: 8 µg/mL (≈ 9.95 µM); MIC [27]: 0.2 µg/mL (≈ 0.249 µM) |
| CC[C@H]1OC(=O)[C@H](C)C(=O)[C@H](C)[C@@H](O[C@@H]2O[C@H](C)C[C@H](N(C)C)[C@H]2O)[C@](C)(OC/C=C/c2nc(-c3cccnc3)cs2)C[C@@H](C)C(=O)[C@H](C)[C@H]2NC(=O)O[C@@]21C [Example 65] | > 100 | 0.1 (≈ 0.125 µM) | 0.02 (≈ 0.025 µM) | ≤ 0.005 | 0.1 (≈ 0.125 µM) | 0.78 (≈ 0.976 µM) | 0.01 (≈ 0.0125 µM) | 0.008 (≈ 0.01 µM) | 0.1 (≈ 0.125 µM) | 0.1 (≈ 0.125 µM) | ≤ 0.004 | 0.25 (≈ 0.313 µM) | 50 (≈ 62.6 µM) | 0.1 (≈ 0.125 µM) | 0.02 (≈ 0.025 µM) | 0.1 (≈ 0.125 µM) | 0.02 (≈ 0.025 µM) | 0.2 (≈ 0.25 µM) | > 100 | 2 (≈ 2.5 µM) | MIC [21]: 0.1 µg/mL (≈ 0.125 µM); MIC [22]: > 100 µg/mL; MIC [23]: 100 µg/mL (≈ 125 µM); MIC [24]: 0.01 µg/mL (≈ 0.0125 µM); MIC [25]: 25 µg/mL (≈ 31.3 µM); MIC [26]: > 128 µg/mL; MIC [27]: 0.1 µg/mL (≈ 0.125 µM) |
| CC[C@H]1OC(=O)[C@H](C)C(=O)[C@H](C)[C@@H](O[C@@H]2O[C@H](C)C[C@H](N(C)C)[C@H]2O)[C@](C)(OC/C=C/c2nc(-c3cccs3)cs2)C[C@@H](C)C(=O)[C@H](C)[C@H]2NC(=O)O[C@@]21C [Example 67] | > 100 | 0.1 (≈ 0.124 µM) | 0.02 (≈ 0.0249 µM) | 0.01 (≈ 0.0124 µM) | 0.1 (≈ 0.124 µM) | 0.39 (≈ 0.485 µM) | 0.01 (≈ 0.0124 µM) | 0.03 (≈ 0.0373 µM) | 0.1 (≈ 0.124 µM) | 0.1 (≈ 0.124 µM) | 0.03 (≈ 0.0373 µM) | 0.25 (≈ 0.311 µM) | 12.5 (≈ 15.5 µM) | 0.1 (≈ 0.124 µM) | 0.1 (≈ 0.124 µM) | 0.1 (≈ 0.124 µM) | 0.05 (≈ 0.0622 µM) | 0.78 (≈ 0.97 µM) | > 100 | 8 (≈ 9.95 µM) | MIC [21]: 0.1 µg/mL (≈ 0.124 µM); MIC [22]: > 100 µg/mL; MIC [23]: > 100 µg/mL; MIC [24]: 0.01 µg/mL (≈ 0.0124 µM); MIC [25]: > 100 µg/mL; MIC [26]: 32 µg/mL (≈ 39.8 µM); MIC [27]: 0.1 µg/mL (≈ 0.124 µM) |
| CC[C@H]1OC(=O)[C@H](C)C(=O)[C@H](C)[C@@H](O[C@@H]2O[C@H](C)C[C@H](N(C)C)[C@H]2O)[C@](C)(OC/C=C/c2ccc(-c3cccnc3)s2)C[C@@H](C)C(=O)[C@H](C)[C@H]2NC(=O)O[C@@]21C [Example 68] | > 100 | 6.2 (≈ 7.77 µM) | 0.02 (≈ 0.0251 µM) | 0.02 (≈ 0.0251 µM) | 0.39 (≈ 0.489 µM) | 3.1 (≈ 3.88 µM) | 0.05 (≈ 0.0627 µM) | ≤ 0.004 | 0.39 (≈ 0.489 µM) | 6.2 (≈ 7.77 µM) | ≤ 0.004 | 0.125 (≈ 0.157 µM) | > 100 | 0.39 (≈ 0.489 µM) | 0.05 (≈ 0.0627 µM) | 0.2 (≈ 0.251 µM) | 0.05 (≈ 0.0627 µM) | 0.39 (≈ 0.489 µM) | > 100 | 2 (≈ 2.51 µM) | MIC [21]: 0.39 µg/mL (≈ 0.489 µM); MIC [22]: > 100 µg/mL; MIC [23]: 100 µg/mL (≈ 125 µM); MIC [24]: 0.02 µg/mL (≈ 0.0251 µM); MIC [25]: > 100 µg/mL; MIC [26]: 0.125 µg/mL (≈ 0.157 µM); MIC [27]: 0.39 µg/mL (≈ 0.489 µM) |
